Results reported in paper PMC5766581, “NF-κB inducing kinase is a therapeutic target for systemic lupus erythematosus” (Nature Communications, 2018).

What was measured:
Assay in all cases: SelectScreen kinase panel
Assay type in all cases: biochemical
PIM1 = target: T1, PIM1 (Homo sapiens, UniProt P11309)
T1 construct: purchased Invitrogen / ThermoFisher SelectScreen
Protocol: (§1) The ability of NIK to catalyze the hydrolysis of adenosine-5′-triphosphate (ATP) was monitored using the Transcreener ADP (adenosine-5′-diphosphate) assay (Bell Brook Labs, Fitchburg, WI). Purified human NIK kinase domain (a.a. 340–694) (0.5 nM) or mouse NIK kinase domain (a.a. 329–675) (1 nM) derived from a baculovirus-infected insect cell expression system was incubated with test compounds for 0.5–2 h in 50 mM HEPES buffer (pH 7.2) containing 10 mM MgCl2, 2 mM dithiothreitol, 10 μM ATP, 0.01% Triton X-100, 0.1% gamma-globulins from bovine blood, 1% dimethylsulfoxide (DMSO), 7 μg/mL ADP antibody and 5 nM ADP-MR121 633 tracer. Reactions were quenched by the addition of 20 mM EDTA and 0.01% Brij 35. The tracer bound to the antibody was displaced by the ADP generated during the NIK reaction, which caused a decrease in fluorescence polarization that was measured by laser excitation at 633 nm with a Fluorescence Correlation Spectroscopy Plus reader (Evotec AG). Equilibrium dissociation constant (Ki) values for NIK inhibitors are calculated from plots of activity vs. inhibitor concentration using Morrison’s quadratic equation that accounts for the potential of tight binding, and by also applying the conversion factor that accounted for competitive inhibition and the concentration of substrate used in the assay relative to its Michaelis constant (Km). The Ki values with hPKD1 (PKCμ) were determined using the same assay conditions as for NIK. Ki measurements for hKHS1 and hLRRK2, as well as broad kinase selectivity profiling for SMI1, were carried out by Invitrogen using their SelectScreen kinase assay panel (ThermoFisher Scientific, Madison, WI). The vendor offered two types of kinase activity assays, a peptide phosphorylation assay (Z′-LYTE) and an ADP quantitation assay (Adapta), as well as one type of kinase ATP site competitive binding assay (LanthaScreen). See vendor web site for technology and protocol details for each specific kinase assay.
(§2) The average % Inhibition of each kinase is reported (Supplementary Table 1).

IKK_alpha = target: T2, IKK_alpha (Homo sapiens, UniProt O15111)
T2 construct: purchased Invitrogen / ThermoFisher SelectScreen
Protocol: as §1, §2

PLK2 = target: T3, PLK2 (Homo sapiens, UniProt Q9NYY3)
T3 construct: purchased Invitrogen / ThermoFisher SelectScreen
Protocol: as §1, §2

NEK1 = target: T4, NEK1 (Homo sapiens, UniProt Q96PY6)
T4 construct: purchased Invitrogen / ThermoFisher SelectScreen
Protocol: as §1, §2

Bmx = target: T5, Bmx (Homo sapiens, UniProt P51813)
T5 construct: purchased Invitrogen / ThermoFisher SelectScreen
Protocol: as §1, §2

JAK3 = target: T6, JAK3 (Homo sapiens, UniProt P52333)
T6 construct: purchased Invitrogen / ThermoFisher SelectScreen
Protocol: as §1, §2

Aurora_B = target: T7, Aurora_B (Homo sapiens, UniProt Q96GD4)
T7 construct: purchased Invitrogen / ThermoFisher SelectScreen
Protocol: as §1, §2

Srm = target: T8, Srm (Homo sapiens, UniProt Q9H3Y6)
T8 construct: purchased Invitrogen / ThermoFisher SelectScreen
Protocol: as §1, §2

ACVR1B = target: T9, ACVR1B (Homo sapiens, UniProt P36896)
T9 construct: purchased Invitrogen / ThermoFisher SelectScreen
Protocol: as §1, §2

PKC_alpha = target: T10, PKC_alpha (Homo sapiens, UniProt P17252)
T10 construct: purchased Invitrogen / ThermoFisher SelectScreen
Protocol: as §1, §2

Ron = target: T11, Ron (Homo sapiens, UniProt Q04912)
T11 construct: purchased Invitrogen / ThermoFisher SelectScreen
Protocol: as §1, §2

CamKIV = target: T12, CamKIV (Homo sapiens, UniProt Q16566)
T12 construct: purchased Invitrogen / ThermoFisher SelectScreen
Protocol: as §1, §2

P38_beta = target: T13, P38_beta (Homo sapiens, UniProt Q15759)
T13 construct: purchased Invitrogen / ThermoFisher SelectScreen
Protocol: as §1, §2

LRRK2 = target: T14, LRRK2 (Homo sapiens, UniProt Q5S007); details: NIK SMI1 1 µM; ATP Km app
T14 construct: purchased Invitrogen / ThermoFisher SelectScreen
Protocol: as §1, §2

GRK2 = target: T15, GRK2 (Homo sapiens, UniProt P25098)
T15 construct: purchased Invitrogen / ThermoFisher SelectScreen
Protocol: as §1, §2

Blk = target: T16, Blk (Homo sapiens, UniProt P51451)
T16 construct: purchased Invitrogen / ThermoFisher SelectScreen
Protocol: as §1, §2

CLK1 = target: T17, CLK1 (Homo sapiens, UniProt P49759)
T17 construct: purchased Invitrogen / ThermoFisher SelectScreen
Protocol: as §1, §2

MST4 = target: T18, MST4 (Homo sapiens, UniProt Q9P289)
T18 construct: purchased Invitrogen / ThermoFisher SelectScreen
Protocol: as §1, §2

KDR = target: T19, KDR (Homo sapiens, UniProt P35968)
T19 construct: purchased Invitrogen / ThermoFisher SelectScreen
Protocol: as §1, §2

PKD2 = target: T20, PKD2 (Homo sapiens, UniProt Q9BZL6)
T20 construct: purchased Invitrogen / ThermoFisher SelectScreen
Protocol: as §1, §2

ITK = target: T21, ITK (Homo sapiens, UniProt Q08881)
T21 construct: purchased Invitrogen / ThermoFisher SelectScreen
Protocol: as §1, §2

MARK3 = target: T22, MARK3 (Homo sapiens, UniProt P27448)
T22 construct: purchased Invitrogen / ThermoFisher SelectScreen
Protocol: as §1, §2

SGK1 = target: T23, SGK1 (Homo sapiens, UniProt O00141)
T23 construct: purchased Invitrogen / ThermoFisher SelectScreen
Protocol: as §1, §2

EphA1 = target: T24, EphA1 (Homo sapiens, UniProt P21709)
T24 construct: purchased Invitrogen / ThermoFisher SelectScreen
Protocol: as §1, §2

Met = target: T25, Met (Homo sapiens, UniProt P08581)
T25 construct: purchased Invitrogen / ThermoFisher SelectScreen
Protocol: as §1, §2

Ros = target: T26, Ros (Homo sapiens, UniProt P08922)
T26 construct: purchased Invitrogen / ThermoFisher SelectScreen
Protocol: as §1, §2

Fgr = target: T27, Fgr (Homo sapiens, UniProt P09769)
T27 construct: purchased Invitrogen / ThermoFisher SelectScreen
Protocol: as §1, §2

Aurora_A = target: T28, Aurora_A (Homo sapiens, UniProt O14965)
T28 construct: purchased Invitrogen / ThermoFisher SelectScreen
Protocol: as §1, §2

CDK1/cyclinB = target: T29, CDK1/cyclinB (Homo sapiens, UniProt P06493)
T29 construct: purchased Invitrogen / ThermoFisher SelectScreen
Protocol: as §1, §2

BrSK1 = target: T30, BrSK1 (Homo sapiens, UniProt Q8TDC3)
T30 construct: purchased Invitrogen / ThermoFisher SelectScreen
Protocol: as §1, §2

ErbB2 = target: T31, ErbB2 (Homo sapiens, UniProt P04626)
T31 construct: purchased Invitrogen / ThermoFisher SelectScreen
Protocol: as §1, §2

YSK1 = target: T32, YSK1 (Homo sapiens, UniProt O00506)
T32 construct: purchased Invitrogen / ThermoFisher SelectScreen
Protocol: as §1, §2

T14 sequence (Q5S007 whole entry): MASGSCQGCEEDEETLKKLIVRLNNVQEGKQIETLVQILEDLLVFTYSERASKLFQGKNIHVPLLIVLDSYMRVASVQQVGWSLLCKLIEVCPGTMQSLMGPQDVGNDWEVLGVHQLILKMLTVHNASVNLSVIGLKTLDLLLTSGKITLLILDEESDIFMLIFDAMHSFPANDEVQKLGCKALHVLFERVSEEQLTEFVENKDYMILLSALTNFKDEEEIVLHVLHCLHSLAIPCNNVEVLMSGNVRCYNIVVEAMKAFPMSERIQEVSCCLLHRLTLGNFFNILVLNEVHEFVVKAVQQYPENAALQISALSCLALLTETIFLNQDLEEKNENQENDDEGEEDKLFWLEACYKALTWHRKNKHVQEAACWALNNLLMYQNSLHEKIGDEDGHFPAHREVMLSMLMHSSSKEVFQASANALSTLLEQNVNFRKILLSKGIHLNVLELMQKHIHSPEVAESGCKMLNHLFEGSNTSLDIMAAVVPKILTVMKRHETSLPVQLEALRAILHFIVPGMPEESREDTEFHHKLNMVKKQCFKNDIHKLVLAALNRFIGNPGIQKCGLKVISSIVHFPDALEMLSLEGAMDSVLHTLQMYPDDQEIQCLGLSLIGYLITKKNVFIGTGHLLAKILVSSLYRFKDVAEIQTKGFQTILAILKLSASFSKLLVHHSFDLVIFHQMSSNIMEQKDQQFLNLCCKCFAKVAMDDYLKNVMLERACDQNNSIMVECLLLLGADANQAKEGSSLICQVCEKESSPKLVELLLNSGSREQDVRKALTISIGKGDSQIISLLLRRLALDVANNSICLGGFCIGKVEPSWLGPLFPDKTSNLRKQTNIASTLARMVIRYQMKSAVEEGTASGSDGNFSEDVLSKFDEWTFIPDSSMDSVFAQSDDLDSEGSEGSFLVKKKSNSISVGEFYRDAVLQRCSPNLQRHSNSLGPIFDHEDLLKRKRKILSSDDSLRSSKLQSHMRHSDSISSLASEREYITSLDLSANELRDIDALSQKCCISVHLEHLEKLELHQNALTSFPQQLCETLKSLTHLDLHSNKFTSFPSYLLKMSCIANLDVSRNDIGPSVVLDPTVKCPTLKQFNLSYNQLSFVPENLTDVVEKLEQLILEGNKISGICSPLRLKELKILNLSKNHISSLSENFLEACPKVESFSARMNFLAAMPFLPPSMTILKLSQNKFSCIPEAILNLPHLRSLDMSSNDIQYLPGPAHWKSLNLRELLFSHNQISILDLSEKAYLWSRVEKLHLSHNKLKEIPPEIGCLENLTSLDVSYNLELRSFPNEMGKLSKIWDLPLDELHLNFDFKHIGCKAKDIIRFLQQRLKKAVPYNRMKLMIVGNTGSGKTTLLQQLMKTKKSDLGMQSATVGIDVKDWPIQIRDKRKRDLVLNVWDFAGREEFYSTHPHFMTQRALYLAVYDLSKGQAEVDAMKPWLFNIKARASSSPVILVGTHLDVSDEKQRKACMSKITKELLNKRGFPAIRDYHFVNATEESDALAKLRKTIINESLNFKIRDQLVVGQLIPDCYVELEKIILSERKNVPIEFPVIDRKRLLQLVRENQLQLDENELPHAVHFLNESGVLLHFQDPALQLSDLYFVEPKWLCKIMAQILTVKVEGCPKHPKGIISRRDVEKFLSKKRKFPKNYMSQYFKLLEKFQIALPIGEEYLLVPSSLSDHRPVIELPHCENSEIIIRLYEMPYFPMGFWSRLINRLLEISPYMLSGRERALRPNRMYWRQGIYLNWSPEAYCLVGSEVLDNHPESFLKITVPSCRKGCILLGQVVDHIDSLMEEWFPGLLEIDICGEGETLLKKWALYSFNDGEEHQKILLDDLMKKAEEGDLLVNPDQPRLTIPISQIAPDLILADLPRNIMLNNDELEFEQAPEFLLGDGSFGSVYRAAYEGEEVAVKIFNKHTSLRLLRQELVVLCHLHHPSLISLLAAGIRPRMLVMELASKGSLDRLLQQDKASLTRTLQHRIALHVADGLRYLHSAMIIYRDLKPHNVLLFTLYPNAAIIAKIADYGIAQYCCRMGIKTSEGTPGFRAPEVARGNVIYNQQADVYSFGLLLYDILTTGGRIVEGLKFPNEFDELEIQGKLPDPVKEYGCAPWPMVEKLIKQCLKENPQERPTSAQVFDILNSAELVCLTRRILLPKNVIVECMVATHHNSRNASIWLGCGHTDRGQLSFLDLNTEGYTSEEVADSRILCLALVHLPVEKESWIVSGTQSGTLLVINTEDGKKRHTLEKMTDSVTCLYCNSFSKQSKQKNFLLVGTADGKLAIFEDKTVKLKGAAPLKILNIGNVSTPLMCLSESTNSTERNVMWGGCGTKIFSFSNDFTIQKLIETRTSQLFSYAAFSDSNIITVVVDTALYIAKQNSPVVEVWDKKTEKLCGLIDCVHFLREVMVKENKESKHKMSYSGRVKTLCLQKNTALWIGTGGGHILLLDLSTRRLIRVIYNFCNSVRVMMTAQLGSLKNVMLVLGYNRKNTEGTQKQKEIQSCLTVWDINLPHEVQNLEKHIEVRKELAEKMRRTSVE
T16 sequence (P51451 whole entry): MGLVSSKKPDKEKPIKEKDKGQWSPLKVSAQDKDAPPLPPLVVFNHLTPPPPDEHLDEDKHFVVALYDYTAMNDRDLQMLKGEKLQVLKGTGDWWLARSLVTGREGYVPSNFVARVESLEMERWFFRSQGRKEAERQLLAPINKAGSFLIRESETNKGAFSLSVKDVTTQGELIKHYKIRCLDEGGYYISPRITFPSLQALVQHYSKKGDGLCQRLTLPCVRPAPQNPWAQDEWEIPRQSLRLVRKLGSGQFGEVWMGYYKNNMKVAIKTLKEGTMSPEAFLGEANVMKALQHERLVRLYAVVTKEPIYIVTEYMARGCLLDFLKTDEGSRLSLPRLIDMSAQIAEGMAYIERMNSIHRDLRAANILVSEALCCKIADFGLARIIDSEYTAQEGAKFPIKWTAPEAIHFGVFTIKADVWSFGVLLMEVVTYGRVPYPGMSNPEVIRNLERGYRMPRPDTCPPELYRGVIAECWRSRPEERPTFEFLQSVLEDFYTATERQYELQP
T31 sequence (P04626 23-1255): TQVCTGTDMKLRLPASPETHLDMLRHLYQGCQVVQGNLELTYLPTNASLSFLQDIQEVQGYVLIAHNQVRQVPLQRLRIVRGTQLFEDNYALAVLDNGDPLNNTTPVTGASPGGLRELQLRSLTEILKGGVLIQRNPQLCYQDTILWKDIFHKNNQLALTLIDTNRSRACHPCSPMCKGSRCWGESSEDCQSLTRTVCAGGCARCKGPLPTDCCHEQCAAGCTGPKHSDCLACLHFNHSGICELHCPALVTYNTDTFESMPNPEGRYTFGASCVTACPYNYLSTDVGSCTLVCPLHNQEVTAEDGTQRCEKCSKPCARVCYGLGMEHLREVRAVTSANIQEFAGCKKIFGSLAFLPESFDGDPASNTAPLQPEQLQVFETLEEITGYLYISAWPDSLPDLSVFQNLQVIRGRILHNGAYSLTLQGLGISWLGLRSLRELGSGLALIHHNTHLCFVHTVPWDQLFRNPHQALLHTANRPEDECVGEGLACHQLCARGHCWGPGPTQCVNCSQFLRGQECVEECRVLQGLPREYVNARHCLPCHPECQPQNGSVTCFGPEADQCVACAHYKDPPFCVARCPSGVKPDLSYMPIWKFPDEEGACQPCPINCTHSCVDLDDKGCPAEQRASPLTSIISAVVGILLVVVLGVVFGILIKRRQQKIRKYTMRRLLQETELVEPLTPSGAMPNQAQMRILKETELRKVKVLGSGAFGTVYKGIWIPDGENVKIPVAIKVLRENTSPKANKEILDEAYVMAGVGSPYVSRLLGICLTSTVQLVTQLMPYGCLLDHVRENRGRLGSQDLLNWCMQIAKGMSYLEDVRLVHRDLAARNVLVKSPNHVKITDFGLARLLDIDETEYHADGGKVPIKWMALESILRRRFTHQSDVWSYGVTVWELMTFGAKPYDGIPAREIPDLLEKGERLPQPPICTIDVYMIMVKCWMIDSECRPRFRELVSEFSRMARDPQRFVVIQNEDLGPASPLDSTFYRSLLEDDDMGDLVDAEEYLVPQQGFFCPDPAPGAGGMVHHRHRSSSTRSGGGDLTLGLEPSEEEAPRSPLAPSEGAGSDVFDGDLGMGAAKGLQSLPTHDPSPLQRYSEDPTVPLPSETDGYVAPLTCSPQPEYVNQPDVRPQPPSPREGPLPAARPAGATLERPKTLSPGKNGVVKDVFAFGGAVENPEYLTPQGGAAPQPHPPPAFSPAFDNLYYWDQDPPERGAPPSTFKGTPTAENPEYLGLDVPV
T32 sequence (O00506 whole entry): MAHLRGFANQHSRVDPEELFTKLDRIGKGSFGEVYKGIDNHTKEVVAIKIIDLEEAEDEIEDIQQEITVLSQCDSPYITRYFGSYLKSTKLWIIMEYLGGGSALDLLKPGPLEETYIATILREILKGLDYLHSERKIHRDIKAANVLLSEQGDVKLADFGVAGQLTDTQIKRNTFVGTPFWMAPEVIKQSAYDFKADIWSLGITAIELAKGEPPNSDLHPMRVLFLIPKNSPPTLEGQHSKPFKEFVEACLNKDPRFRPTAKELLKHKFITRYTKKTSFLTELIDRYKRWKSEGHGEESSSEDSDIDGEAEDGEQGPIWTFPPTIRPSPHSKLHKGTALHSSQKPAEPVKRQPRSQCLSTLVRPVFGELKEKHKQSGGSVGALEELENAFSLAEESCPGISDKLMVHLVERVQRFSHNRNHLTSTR
T28 sequence (O14965 whole entry): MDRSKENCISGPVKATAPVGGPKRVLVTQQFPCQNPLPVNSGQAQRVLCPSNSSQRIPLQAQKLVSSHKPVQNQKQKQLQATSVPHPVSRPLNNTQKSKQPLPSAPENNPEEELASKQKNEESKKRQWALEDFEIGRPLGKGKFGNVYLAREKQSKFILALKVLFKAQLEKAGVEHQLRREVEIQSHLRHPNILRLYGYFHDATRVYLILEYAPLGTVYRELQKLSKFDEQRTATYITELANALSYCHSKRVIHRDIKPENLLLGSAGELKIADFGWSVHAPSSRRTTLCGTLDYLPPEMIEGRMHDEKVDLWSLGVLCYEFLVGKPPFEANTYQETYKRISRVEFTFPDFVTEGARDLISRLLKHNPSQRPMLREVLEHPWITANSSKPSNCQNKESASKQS

Compound: COc1cc(C(N)=O)nc(-c2cccc(C#C[C@]3(O)CCN(C)C3=O)c2)c1 [NIK SMI1]
- inhibition at 1 µM (PIM1): -0.5%
- inhibition at 1 µM (IKK_alpha): 3.1%
- inhibition at 1 µM (PLK2): 4%
- inhibition at 1 µM (NEK1): 31.5%
- inhibition at 1 µM (Bmx): -5%
- inhibition at 1 µM (JAK3): 15%
- inhibition at 1 µM (Aurora_B): 24.5%
- inhibition at 1 µM (Srm): 12%
- inhibition at 1 µM (ACVR1B): 2%
- inhibition at 1 µM (PKC_alpha): 4.5%
- inhibition at 1 µM (Ron): 13%
- inhibition at 1 µM (CamKIV): 14.5%
- inhibition at 1 µM (P38_beta): 9%
- % Inhibition (LRRK2): 82.1%
- inhibition at 1 µM (LRRK2): > 75%
- inhibition at 1 µM (GRK2): 4.5%
- inhibition at 1 µM (Blk): -10.5%
- inhibition at 1 µM (CLK1): 4.5%
- inhibition at 1 µM (MST4): 33.5%
- inhibition at 1 µM (KDR): -1.5%
- inhibition at 1 µM (PKD2): 0%
- inhibition at 1 µM (ITK): -3%
- inhibition at 1 µM (MARK3): 7.5%
- inhibition at 1 µM (SGK1): 5%
- inhibition at 1 µM (EphA1): 2.5%
- inhibition at 1 µM (Met): 0%
- inhibition at 1 µM (Ros): 12.5%
- inhibition at 1 µM (Fgr): 8%
- inhibition at 1 µM (Aurora_A): 1%
- inhibition at 1 µM (CDK1/cyclinB): 8.5%
- inhibition at 1 µM (BrSK1): 13.5%
- inhibition at 1 µM (ErbB2): -1.5%
- inhibition at 1 µM (YSK1): 39%
